Laboratory results: patent US20250034170A1, “SMALL MOLECULE MODULATORS OF GLUCOCEREBROSIDASE ACTIVITY AND USES THEREOF” (Vanqua Bio, Inc., priority 2021, published 2025)

What follows are molecules tested against T1, GCase (Homo sapiens, UniProt P04062) (assay: activation of GCase in a live cell PFB assay in HELA cells). Conditions: activation of GCase, EC50 ranges.
T1 construct: endogenous in cells; host or cells: HeLa cells
T1 sequence (P04062 40-536): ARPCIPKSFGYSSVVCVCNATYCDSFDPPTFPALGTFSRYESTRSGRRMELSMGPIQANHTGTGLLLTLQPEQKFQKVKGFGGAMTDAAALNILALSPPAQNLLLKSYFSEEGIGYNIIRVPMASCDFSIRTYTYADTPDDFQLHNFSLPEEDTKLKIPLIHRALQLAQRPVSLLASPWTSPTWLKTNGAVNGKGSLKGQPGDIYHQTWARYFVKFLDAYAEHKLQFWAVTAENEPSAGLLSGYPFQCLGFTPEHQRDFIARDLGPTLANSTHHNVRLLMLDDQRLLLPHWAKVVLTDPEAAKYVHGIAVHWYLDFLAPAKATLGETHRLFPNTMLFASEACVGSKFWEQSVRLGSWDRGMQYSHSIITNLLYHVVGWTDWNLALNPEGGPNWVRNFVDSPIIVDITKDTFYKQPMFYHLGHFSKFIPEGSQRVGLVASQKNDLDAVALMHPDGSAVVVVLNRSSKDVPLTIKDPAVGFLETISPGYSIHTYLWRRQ
Assay type: cell-based
Method: Exemplary compounds were evaluated for activation of GCase in a live cell PFB assay in HELA cells (essentially as described in Ysselstein et al., “LRRK2 kinase activity regulates lysosomal glucocerebrosidase in neurons derived from Parkinson's disease patients” Nature Communications (2019) 10:5570). […] EC50 ranges: A: <10 μM; B: >10-50 μM; C: >50-100 μM; D: >100 μM.

SMILES	EC50
Cc1nc(N2CCC3(CCN(c4cnc5c(C)nn(CC(F)F)c5n4)C3)C2)cc(C(F)(F)F)n1 (centres unmarked) [Cmpd 537]	> 100 µM
Cc1nc(N2CCC3(CCN(c4ncc5cnn(C6COC6)c5n4)C3)C2)cc(C(F)(F)F)n1 (centres unmarked) [Cmpd 545]	> 100 µM
Cc1nn(CC(F)F)c2nc(N3CCC4(CCN(c5cnc(C(F)(F)F)nc5)C4)C3)ncc12 (centres unmarked) [Cmpd 547]	10 to 50 µM
Cc1nc(N2CCC3(CCN(c4ncc5cnn(CC(F)(F)F)c5n4)C3)C2)cc(C(F)(F)F)n1 (centres unmarked) [Cmpd 548]	> 100 µM
Cc1nc(N2CCC3(CCN(c4cnc5c(C)nn(C6COC6)c5n4)CC3)C2)cc(C(F)(F)F)n1 [Cmpd 549]	> 100 µM
Cc1nc(N2CCC3(CCN(c4ncc5c(C)nn(C6COC6)c5n4)CC3)C2)cc(C(F)(F)F)n1 [Cmpd 550]	> 100 µM
Cc1nc(N2CCC3(C2)CN(c2ncc4cnn(CC(F)F)c4n2)C3)cc(C(F)(F)F)n1 [Cmpd 553]	10 to 50 µM
Cc1nc(N2CCC3(C2)CN(c2ncc4cnn(CC(F)(F)F)c4n2)C3)cc(C(F)(F)F)n1 [Cmpd 554]	10 to 50 µM
Cc1nc(N2CCC3(C2)CN(c2cnc4c(C)nn(C5COC5)c4n2)C3)cc(C(F)(F)F)n1 [Cmpd 556]	10 to 50 µM
Cc1nc(N2CCC3(C2)CN(c2ncc4cnn(C5COC5)c4n2)C3)cc(C(F)(F)F)n1 [Cmpd 557]	10 to 50 µM
CC(C)c1ncc(N2CC3(CCN(c4cnc5cnn(CC(F)F)c5n4)C3)C2)cn1 [Cmpd 559]	10 to 50 µM
FC(F)Cn1ncc2ncc(N3CCC4(CN(c5cnc(C6CC6)nc5)C4)C3)nc21 [Cmpd 560]	10 to 50 µM
Cc1ncc(N2CC3(CCN(c4cnc5cnn(CC(F)F)c5n4)CC3)C2)c(C(F)(F)F)n1 [Cmpd 561]	10 to 50 µM
Cc1nc(N2CC3(CCN(c4ncc5cnn(C6COC6)c5n4)CC3)C2)cc(C(F)(F)F)n1 [Cmpd 562]	10 to 50 µM
Cc1nc(N2CC3(CCN(c4cnc5cnn(C6COC6)c5n4)CC3)C2)cc(C(F)(F)F)n1 [Cmpd 563]	> 100 µM
Cc1nc(N2CC3(CCN(c4cnc5c(C)nn(C6COC6)c5n4)CC3)C2)cc(C(F)(F)F)n1 [Cmpd 565]	10 to 50 µM
Cc1nc(N2CC3(CCN(c4ncc5c(C)nn(CC(F)F)c5n4)CC3)C2)cc(C(F)(F)F)n1 [Cmpd 569]	10 to 50 µM
Cc1nc(N2CC3(CCN(c4ncc5c(C)nn(C6COC6)c5n4)CC3)C2)cc(C(F)(F)F)n1 [Cmpd 570]	10 to 50 µM
Cc1nc(N2CCC3(CCN(c4cnc5cnn(CC(F)(F)F)c5n4)CC3)C2)cc(C(F)(F)F)n1 [Cmpd 571]	10 to 50 µM
Cc1nc(N2CCC3(CCN(c4ncc5cnn(C6COC6)c5n4)CC3)C2)cc(C(F)(F)F)n1 [Cmpd 573]	> 100 µM
Cc1nc(N2CCC3(CCN(c4cnc5cnn(C6COC6)c5n4)CC3)C2)cc(C(F)(F)F)n1 [Cmpd 574]	10 to 50 µM
Cc1nc(N2CCC3(CCN(c4cnc5c(C)nn(CC(F)F)c5n4)CC3)C2)cc(C(F)(F)F)n1 [Cmpd 575]	> 100 µM
Cc1nc(N2CCC3(CCN(c4ncc5c(C)nn(CC(F)F)c5n4)CC3)C2)cc(C(F)(F)F)n1 [Cmpd 576]	10 to 50 µM

Next, values leading:

EC50	SMILES
< 10 µM	Cc1nc(N2CCC3(CCN(c4cnc5cnn(CC(F)F)c5n4)C3)C2)cc(C(F)(F)F)n1 (centres unmarked) [Cmpd 521]
< 10 µM	Cc1nc(N2CC3(CCN(c4cnc5cnn(CC(F)F)c5n4)CC3)C2)cc(C(F)(F)F)n1 [Cmpd 522]
< 10 µM	Cc1nc(N2CCC3(CCN(c4cnc5cnn(CC(F)F)c5n4)C3=O)C2)cc(C(F)(F)F)n1 (centres unmarked) [Cmpd 523]
< 10 µM	Cc1nc(N2CC3(CCN(c4cnc5cnn(CC(F)F)c5n4)C3=O)C2)cc(C(F)(F)F)n1 [Cmpd 524]
< 10 µM	Cc1nc(N2CC3(CC(=O)N(c4cnc5cnn(CC(F)F)c5n4)C3)C2)cc(C(F)(F)F)n1 [Cmpd 525]
< 10 µM	FC(F)Cn1ncc2ncc(N3CCC4(CC3)CN(c3cnc(C(F)(F)F)nc3)C4)nc21 [Cmpd 526]
< 10 µM	Cc1cc(N2CC3(CCN(c4cnc5cnn(CC(F)F)c5n4)CC3)C2)nc(C(F)(F)F)n1 [Cmpd 527]
< 10 µM	Cc1cc(N2CCC3(CCN(c4cnc5cnn(CC(F)F)c5n4)CC3)C2)nc(C(F)(F)F)n1 [Cmpd 528]
< 10 µM	Cc1cc(N2CC3(CCN(c4cnc5cnn(CC(F)F)c5n4)CC3)CC2=O)nc(C(F)(F)F)n1 [Cmpd 529]
< 10 µM	Cc1nn(CC(F)F)c2nc(N3CCC4(CCN(c5cnc(C(F)(F)F)nc5)C4)C3)cnc12 (centres unmarked) [Cmpd 530]
< 10 µM	FC(F)(F)Cn1ncc2ncc(N3CCC4(CCN(c5cnc(C(F)(F)F)nc5)C4)C3)nc21 (centres unmarked) [Cmpd 531]
10 to 50 µM	FC(F)(F)c1ncc(N2CCC3(CCN(c4cncc(-c5nncs5)n4)C3)C2)cn1 (centres unmarked) [Cmpd 532]
< 10 µM	FC(F)(F)c1ncc(N2CCC3(CCN(c4cnc5cnn(C6COC6)c5n4)C3)C2)cn1 (centres unmarked) [Cmpd 533]
< 10 µM	Cc1nn(C2COC2)c2nc(N3CCC4(CCN(c5cnc(C(F)(F)F)nc5)C4)C3)cnc12 (centres unmarked) [Cmpd 534]
< 10 µM	FC(F)(F)c1ncc(N2CCC3(CCN(c4ncc5cnn(C6COC6)c5n4)C3)C2)cn1 (centres unmarked) [Cmpd 535]
< 10 µM	Cc1nn(C2COC2)c2nc(N3CCC4(CCN(c5cnc(C(F)(F)F)nc5)C4)C3)ncc12 (centres unmarked) [Cmpd 536]
10 to 50 µM	Cc1nc(N2CCC3(CCN(c4cnc5cnn(CC(F)(F)F)c5n4)C3)C2)cc(C(F)(F)F)n1 (centres unmarked) [Cmpd 538]

EC50	SMILES
10 to 50 µM	Cc1nc(N2CCC3(CCN(c4cncc(-c5nncs5)n4)C3)C2)cc(C(F)(F)F)n1 (centres unmarked) [Cmpd 539]
10 to 50 µM	Cc1nc(N2CCC3(CCN(c4ncc5cnn(CC(F)F)c5n4)C3)C2)cc(C(F)(F)F)n1 (centres unmarked) [Cmpd 540]
< 10 µM	Cc1nc(N2CCC3(CCN(c4ncc5c(C)nn(CC(F)F)c5n4)C3)C2)cc(C(F)(F)F)n1 (centres unmarked) [Cmpd 541]
< 10 µM	Cc1nc(N2CCC3(CCN(c4cnc5cnn(C6COC6)c5n4)C3)C2)cc(C(F)(F)F)n1 (centres unmarked) [Cmpd 542]
10 to 50 µM	Cc1nc(N2CCC3(CCN(c4cnc5c(C)nn(C6COC6)c5n4)C3)C2)cc(C(F)(F)F)n1 (centres unmarked) [Cmpd 543]
10 to 50 µM	Cc1nc(N2CCC3(CCN(c4ncc5c(C)nn(C6COC6)c5n4)C3)C2)cc(C(F)(F)F)n1 (centres unmarked) [Cmpd 544]
10 to 50 µM	FC(F)Cn1ncc2cnc(N3CCC4(CCN(c5cnc(C(F)(F)F)nc5)C4)C3)nc21 (centres unmarked) [Cmpd 546]
< 10 µM	Cc1nc(N2CCC3(C2)CN(c2cnc4cnn(CC(F)F)c4n2)C3)cc(C(F)(F)F)n1 [Cmpd 551]
< 10 µM	Cc1nc(N2CCC3(C2)CN(c2cnc4cnn(CC(F)(F)F)c4n2)C3)cc(C(F)(F)F)n1 [Cmpd 552]
< 10 µM	Cc1nc(N2CCC3(C2)CN(c2cnc4cnn(C5COC5)c4n2)C3)cc(C(F)(F)F)n1 [Cmpd 555]
< 10 µM	Cc1nc(N2CCC3(C2)CN(c2ncc4c(C)nn(C5COC5)c4n2)C3)cc(C(F)(F)F)n1 [Cmpd 558]
< 10 µM	Cc1nc(N2CC3(CCN(c4ncc5cnn(CC(F)F)c5n4)CC3)C2)cc(C(F)(F)F)n1 [Cmpd 564]
< 10 µM	Cc1nc(N2CC3(CCN(c4ncc5cnn(CC(F)(F)F)c5n4)CC3)C2)cc(C(F)(F)F)n1 [Cmpd 566]
< 10 µM	Cc1nc(N2CC3(CCN(c4cnc5cnn(CC(F)(F)F)c5n4)CC3)C2)cc(C(F)(F)F)n1 [Cmpd 567]
< 10 µM	Cc1nc(N2CC3(CCN(c4cnc5c(C)nn(CC(F)F)c5n4)CC3)C2)cc(C(F)(F)F)n1 [Cmpd 568]
< 10 µM	Cc1nc(N2CCC3(CCN(c4ncc5cnn(CC(F)(F)F)c5n4)CC3)C2)cc(C(F)(F)F)n1 [Cmpd 572]
